Columns and labels:
[1] = tested on: P. falciparum F32-TEM (artemisinin-sensitive); assay: Standard in vitro chemosensitivity assay (hypoxanthine uptake), F32-TEM; assay type: cell-based; conditions: Plasmodium falciparum, F32, 48 h, read-out: Mean EC50 ± SD
Experimental: The Plasmodium falciparum artemisinin-resistant strain F32-ART5 and its twin artemisinin-sensitive line F32-TEM ([30], [31]) were cultivated at 37°C with 5% CO2 in human red blood cells (EFS [French Blood Bank]) diluted to 2% hematocrit in RPMI 1640 medium supplemented with 5% human serum (EFS) as previously reported ([47]).
In vitro susceptibility of P. falciparum parasites was determined by using the standard hypoxanthine uptake inhibition assay as described previously ([51]) with some modifications ([52]). After D-sorbitol treatment, parasites synchronized at the ring stage were exposed for 48 h, with [^3H]hypoxanthine (Perkin Elmer, France), to a range of concentrations of the different tested compounds. […] Each result represents 3 independent experiments.

Plasmodium berghei = tested on: Plasmodium berghei; set-up: method as in PMID 25791675; conditions: 2.5 mg/kg twice a day for 3 days; untreated group 9%; cited from earlier work
[2] = MTT cell viability assay, human primary hepatocytes; assay type: cell-based
Excerpt: Primary human hepatocytes were isolated from liver segments obtained from adult patients undergoing partial hepatectomy (Service de Chirurgie Digestive, Hépato-Bilio Pancréatique, Hôpital Pitié Salpêtrière, Paris, France). Primary simian hepatocytes were isolated from liver segments collected from healthy Macaca fascicularis monkeys from CEA, Fontenay aux Roses, France. All hepatocytes were obtained using collagenase perfusion as previously described ([40]). Simian hepatocytes were immediately cryopreserved with a Nicool-Freezal controlled rate freezer (Air Liquide Santé, Marne la Vallée, France) and then used when needed after fast thawing at 37°C. Primary murine hepatocytes were isolated from liver segments collected from BALB/c mice. Human and murine hepatocytes were used directly after their isolation. Cells were seeded in 96-well plates (Falcon; Becton Dickinson Labware Europe, France) coated with collagen I (BD Bioscience, USA) at a density of 80,000 cells per well. […]
The toxicity of M1 toward primary hepatocytes and HepG2-CD81 cells was evaluated through the MTT {[3-(4,5-dimethyl-2-thiazolyl)-2,5-diphenyl-2H-tetrazolium bromide]} test ([42]). […] Then, MTT was replaced by a mixture of DMSO-ethanol (1:1) to dissolve formazan crystals and the absorbance was read at 540 nm on a FlexStation plate reader.

[3] = tested on: P. falciparum strain NF54 gametocytes; assay: In vitro gametocyte induction and development assays; assay type: cell-based, Plasmodium falciparum
Experimental: To produce gametocytes, P. falciparum strain NF54 was cultured in vitro as described by Trager and Jensen ([46]) with minor modifications. Briefly, parasites were maintained in human type O-positive red blood cells (RBC) at 5% hematocrit (HCT) in RPMI 1640 medium supplemented with 10% heat-inactivated human serum, 10 mM hypoxanthine, 20 μg/ml gentamicin, The cultures were maintained at 37°C in a standard gas mixture of 5% O2, 5% CO2, 90% N2. Synchronous production of gametocytes was achieved as previously described ([47]). Briefly, asexual parasite cultures were synchronized by purifying schizonts with MACS cell separation columns (Miltenyi Biotec) and using them to reinvade erythrocytes. When parasitemia reached 10 to 15% rings, culture medium was supplemented with 50 mM N-acetylglucosamine (NAG; Sigma-Aldrich) for 5 days in order to clear residual asexual parasites and obtain a virtually pure gametocyte culture.
To assess the effect of gamhepathiopine on the induction of gametocytes, M1 (10 μM) was added at the same moment with NAG. For gametocyte development, gamhepathiopine was added 2 days after the addition of NAG. Medium replacement was performed every day. All cultures were prepared in parallel with controls corresponding to cultures that were treated with 0.1% DMSO. The percentages of each stage of gametocytes in cultures were assessed by microscopy of Giemsa-stained thin blood smears.
Figure S2. Protocol of in vitro gametocytocidal activity assays (NAG = N-acetylglucosamine). Gametocytes stages: I, II, III, IV and V. In blue: M1 effect on gametocyte induction: M1 (10 µM) added at D0 on asexual stage before induction with NAG (control= NAG+ DMSO). In green: M1 effect on gametocyte development: M1 (10 µM) added at D3 after induction (Control= DMSO). In red: M1 effect on exflagellation of mature male gametocytes on D10 (Control DMSO)

hERG channel = target: T1, hERG channel (Homo sapiens, UniProt Q12809); assay: Predictor hERG fluorescence polarization binding assay; conditions: 0.01 nM to 100 µM
T1 construct: purchased ThermoFischer PV5665
T1 sequence (Q12809 whole entry): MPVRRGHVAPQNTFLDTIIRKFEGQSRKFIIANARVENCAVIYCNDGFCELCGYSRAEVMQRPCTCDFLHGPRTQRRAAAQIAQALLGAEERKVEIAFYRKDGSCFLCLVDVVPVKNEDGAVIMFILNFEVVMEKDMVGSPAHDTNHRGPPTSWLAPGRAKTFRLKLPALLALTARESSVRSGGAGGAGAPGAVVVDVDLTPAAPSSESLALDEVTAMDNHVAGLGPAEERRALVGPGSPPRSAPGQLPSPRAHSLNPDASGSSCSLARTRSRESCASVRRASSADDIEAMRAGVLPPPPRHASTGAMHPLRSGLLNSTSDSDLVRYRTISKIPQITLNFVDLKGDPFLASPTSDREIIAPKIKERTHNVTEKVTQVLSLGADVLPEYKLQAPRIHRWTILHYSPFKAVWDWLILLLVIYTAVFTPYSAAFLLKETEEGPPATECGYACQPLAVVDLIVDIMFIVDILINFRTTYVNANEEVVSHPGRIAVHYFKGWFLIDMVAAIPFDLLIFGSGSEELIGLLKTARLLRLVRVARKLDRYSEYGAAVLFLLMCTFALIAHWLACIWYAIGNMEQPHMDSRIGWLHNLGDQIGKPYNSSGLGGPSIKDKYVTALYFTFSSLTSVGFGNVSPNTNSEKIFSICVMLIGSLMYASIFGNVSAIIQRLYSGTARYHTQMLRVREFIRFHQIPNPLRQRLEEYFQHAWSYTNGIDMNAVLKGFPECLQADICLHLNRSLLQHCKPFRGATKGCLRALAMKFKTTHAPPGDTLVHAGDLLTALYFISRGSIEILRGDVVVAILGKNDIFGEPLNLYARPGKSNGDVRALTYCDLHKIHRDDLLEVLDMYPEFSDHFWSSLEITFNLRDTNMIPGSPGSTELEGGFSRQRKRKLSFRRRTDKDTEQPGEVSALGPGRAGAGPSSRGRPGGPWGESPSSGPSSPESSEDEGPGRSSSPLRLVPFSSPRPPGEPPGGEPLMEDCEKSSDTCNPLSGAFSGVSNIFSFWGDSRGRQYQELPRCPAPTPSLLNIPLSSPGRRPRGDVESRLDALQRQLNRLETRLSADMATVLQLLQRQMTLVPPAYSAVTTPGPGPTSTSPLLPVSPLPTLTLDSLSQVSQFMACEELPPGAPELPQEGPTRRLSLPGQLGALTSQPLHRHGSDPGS
Experimental: hERG channel binding was determined with the PredictorTM hERG Fluorescence Polarization Assay (PV5665 ThermoFischer). Briefly, reagents were thawed, and were mixed by pipetting 20x with PredictorTM hERG membranes. The fluorescent tracer was diluted at 4 nM in the PredictorTM hERG buffer. […] The assay was performed in a 96-well Greiner microplate (675093 Dutscher). 25 µL of each concentration of M1 were dispensed into the plate. Then, 50 µL of the PredictorTM hERG membranes and 25 µL of the fluorescent tracer 4 nM were added. The plate was incubated at room temperature for 4 h. The fluorescence polarization measurements were made using a Synergy 2 microplate reader (Biotek Instrument, Colmar, France). Both parallel and perpendicular fluorescence were measured using 530/25 nm excitation and 590/35 nm emission filters with a 570 nm dichroic mirror. The gain was fixed at 110. A known hERG channel blocker (E-4031), provided by the kit, was assayed as positive reference. Both E-4031 and M1 were tested at final concentrations ranging from 0.01 nM to 100 µM. IC50 values were determined graphically by plotting the % inhibition versus the logarithm of 9 M1 concentrations in the assay solution using the GraphPad Prism software (version 6.01, GraphPad Software, La Jolla, CA, USA).

Cc1ccc(-c2cc3nc(NC(C)(C)C)[nH]c(=O)c3s2)cc1 [Metabolite M1, 2-(tert-Butylamino)-6-(p-tolyl)thieno[3,2-d]pyrimidin-4(3H)-one]
EC50 [1]: 283 ± 125 nM | parasitemia at day 4 (Plasmodium berghei): 4.9% | CC50 at 5 days [2]: > 60000 nM | stage III gametocytes mean value ([3]; 10 μM added after induction, day 6 postinduction, control 1.29): 0.48 | stage V gametocytes mean value ([3]; 10 μM added after induction, day 10 postinduction, control 0.70): 0.26 | reduction of the conversion rate of asexual parasites into gametocytes ([3]; 10 μM added at D0 with NAG, renewed every day): 87.8% | binding toward the hERG channel (hERG channel): no affinity

Reference: article PMC8557901 (Microbiology Spectrum, 2021)
